Data published in patent US20250179078A1, “INHIBITORS OF NLRP3” (PTC THERAPEUTICS, INC., priority 2022, published 2025).

Biological target: T1, NLRP3 (Homo sapiens, UniProt Q96P20)
T1 construct: host or cells: THP-1 cells differentiated with PMA
Assay: IL-1β Secretion Assay (NLRP3-dependent IL1β secretion in THP1 cells)
Type: cell-based
Conditions: PMA-differentiated THP-1 cells; compounds incubated 20 h; 2.5 μM Nigericin 3 h; HTRF IL-1β readout; read-out: IC50 IL-1β Inhibition
Summary of the method: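 IL-1β in conditioned media, measured by HTRF after 3 h 2.5 μM nigericin stimulation, gave % inhibition fitted logistically for IC50. Before that, PMA-differentiated (100 ng/mL, 24 h) THP-1 cells were preincubated 20 h with 7 compound concentrations (3-fold serial, DMSO 1:200).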

T1 sequence (Q96P20 whole entry): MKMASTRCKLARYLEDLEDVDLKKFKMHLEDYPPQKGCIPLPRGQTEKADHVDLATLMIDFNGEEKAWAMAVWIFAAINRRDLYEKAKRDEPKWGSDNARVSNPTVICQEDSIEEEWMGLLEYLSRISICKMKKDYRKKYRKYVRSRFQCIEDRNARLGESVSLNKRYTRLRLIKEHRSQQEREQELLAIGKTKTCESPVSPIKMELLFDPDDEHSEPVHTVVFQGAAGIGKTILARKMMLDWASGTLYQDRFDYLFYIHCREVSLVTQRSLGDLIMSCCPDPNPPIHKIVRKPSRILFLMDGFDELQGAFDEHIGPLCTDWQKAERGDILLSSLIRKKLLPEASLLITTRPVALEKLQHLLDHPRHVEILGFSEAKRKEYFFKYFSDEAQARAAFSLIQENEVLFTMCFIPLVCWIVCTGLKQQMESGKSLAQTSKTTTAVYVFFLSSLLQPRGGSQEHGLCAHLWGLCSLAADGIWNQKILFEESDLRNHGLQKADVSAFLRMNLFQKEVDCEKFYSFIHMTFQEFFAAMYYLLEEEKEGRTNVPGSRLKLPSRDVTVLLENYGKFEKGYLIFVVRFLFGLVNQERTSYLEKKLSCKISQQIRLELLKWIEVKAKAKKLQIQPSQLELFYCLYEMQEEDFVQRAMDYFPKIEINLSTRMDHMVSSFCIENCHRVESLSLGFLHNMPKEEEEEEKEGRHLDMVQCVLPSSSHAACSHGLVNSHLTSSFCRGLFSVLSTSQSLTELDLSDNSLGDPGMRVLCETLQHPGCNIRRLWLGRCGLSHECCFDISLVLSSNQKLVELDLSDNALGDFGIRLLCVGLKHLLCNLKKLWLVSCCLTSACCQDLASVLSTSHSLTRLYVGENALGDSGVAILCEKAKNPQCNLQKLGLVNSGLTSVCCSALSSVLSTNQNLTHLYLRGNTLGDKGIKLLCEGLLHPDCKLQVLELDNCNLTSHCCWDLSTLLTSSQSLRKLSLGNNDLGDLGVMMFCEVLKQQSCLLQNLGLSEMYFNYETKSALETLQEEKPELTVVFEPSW

| SMILES | IC50 |
| --- | --- |
| CN1CCC[C@@H](Nc2nnc(-c3ccc(C(F)(F)F)cc3CC(F)(F)F)c3cncn23)C1 [Compound 2, N-[(3R)-1-methylpiperidin-3-yl]-1-[2-(2,2,2-trifluoroethyl)-4-(trifluoromethyl)phenyl]imidazo[1,5-d][1,2,4]triazin-4-amine] | < 1 nM |
| OC[C@H]1C[C@@H](Nc2nnc(-c3ccc(C(F)(F)F)cc3OC(F)(F)F)c3cccn23)C1 [Compound 141, [(1s,3s)-3-({1-[2-(trifluoromethoxy)-4-(trifluoromethyl)phenyl]pyrrolo[1,2-d][1,2,4]triazin-4-yl}amino)cyclobutyl]methanol] | 1 to 10 nM |
| Cc1ccc(-c2nnc(N[C@@H]3CCCN(C)C3)n3cccc23)c(OC(F)(F)F)c1 [Compound 36, N-[(3R)-1-methylpiperidin-3-yl]-1-[4-methyl-2-(trifluoromethoxy)phenyl]pyrrolo[1,2-d][1,2,4]triazin-4-amine] | 1 to 10 nM |
| O[C@@H]1CCCC[C@H]1Nc1nnc(-c2ccc(OC(F)F)cc2OC(F)(F)F)c2cccn12 [Compound 168, (1R,2R)-2-({1-[4-(difluoromethoxy)-2-(trifluoromethoxy)phenyl]pyrrolo[1,2-d][1,2,4]triazin-4-yl}amino)cyclohexan-1-ol] | 1 to 10 nM |
| COc1ccc(-c2nnc(NC[C@@H]3CCCO3)n3cccc23)c(OC(F)(F)F)c1 [Compound 76, 1-[4-methoxy-2-(trifluoromethoxy)phenyl]-N-{[(2S)-oxolan-2-yl]methyl}pyrrolo[1,2-d][1,2,4]triazin-4-amine] | 10 to 100 nM |
| COc1ccc(-c2nnc(NC3CCNC3=O)n3ccc(F)c23)c(C(F)(F)F)c1 (stereo not drawn) [Compound 116, 3-({8-fluoro-1-[4-methoxy-2-(trifluoromethyl)phenyl]pyrrolo[1,2-d][1,2,4]triazin-4-yl}amino)pyrrolidin-2-one] | 10 to 100 nM |
| CN1CCC[C@@H](Nc2nnc(-c3ccc(C(F)(F)F)cc3CC(F)(F)F)c3cccn23)C1 [Compound 40, N-[(3R)-1-methylpiperidin-3-yl]-1-[2-(2,2,2-trifluoroethyl)-4-(trifluoromethyl)phenyl]pyrrolo[1,2-d][1,2,4]triazin-4-amine] | < 1 nM |
| COc1ccc(-c2nnc(N[C@H]3C[C@@](C)(O)C3)n3ccc(F)c23)c(OC(F)F)c1 [Compound 58, (1s,3s)-3-({1-[2-(difluoromethoxy)-4-methoxyphenyl]-8-fluoropyrrolo[1,2-d][1,2,4]triazin-4-yl}amino)-1-methylcyclobutan-1-ol] | 10 to 100 nM |
| CCN1C[C@H](F)C[C@@H](Nc2nnc(-c3ccc(C(F)(F)F)cc3OC(F)F)c3c(F)ccn23)C1 [Compound 5, 1-[2-(difluoromethoxy)-4-(trifluoromethyl)phenyl]-N-[(3R,5R)-1-ethyl-5-fluoropiperidin-3-yl]-8-fluoropyrrolo[1,2-d][1,2,4]triazin-4-amine] | 1 to 10 nM |
| COc1ccc(-c2nnc(N[C@H](C)c3cccc(O)c3)n3cncc23)c(OC(F)(F)F)c1 (single isomer, unassigned) [Compound 248] | ≥ 300 nM |
| O[C@@H]1CCCC[C@H](Nc2nnc(-c3ccc(C(F)(F)F)cc3CC(F)(F)F)c3cccn23)C1.O[C@H]1CCCC[C@@H](Nc2nnc(-c3ccc(C(F)(F)F)cc3CC(F)(F)F)c3cccn23)C1 [Compound 128, (1S,3R)-3-({1-[2-(2,2,2-trifluoroethyl)-4-(trifluoromethyl)phenyl]pyrrolo[1,2-d][1,2,4]triazin-4-yl}amino)cycloheptan-1-ol AND (1R,3S)-3-({1-[2-(2,2,2-trifluoroethyl)-4-(trifluoromethyl)phenyl]pyrrolo[1,2-d][1,2,4]triazin-4-yl}amino)cycloheptan-1-ol] | 1 to 10 nM |
| COc1ccc(-c2nnc(N[C@H]3C[C@@](C)(O)C3)n3cccc23)c(C(F)(F)F)c1 [Compound 71, (1s,3s)-3-({1-[4-methoxy-2-(trifluoromethyl)phenyl]pyrrolo[1,2-d][1,2,4]triazin-4-yl}amino)-1-methylcyclobutan-1-ol] | 1 to 10 nM |
| COc1ccc(-c2nnc(Nc3cc[nH]n3)n3cccc23)c(C2CC2)c1 [Compound 105, 1-(2-cyclopropyl-4-methoxyphenyl)-N-(1H-pyrazol-3-yl)pyrrolo[1,2-d][1,2,4]triazin-4-amine] | 100 to 300 nM |

Next, values leading:

| IC50 | SMILES |
| --- | --- |
| 1 to 10 nM | Cc1ccc(-c2nnc(N[C@H]3C[C@@](C)(O)C3)n3nc(C)cc23)c(CC(F)(F)F)c1 [Compound 390, (1s,3s)-1-methyl-3-({2-methyl-4-[4-methyl-2-(2,2,2-trifluoroethyl)phenyl]pyrazolo[1,5-d][1,2,4]triazin-7-yl}amino)cyclobutan-1-ol] |
| 10 to 100 nM | COc1ccc(-c2nnc(N[C@H]3C[C@@](C)(O)C3)n3cncc23)c(OCC(F)(F)F)c1 [Compound 305, (1s,3s)-3-({1-[4-methoxy-2-(2,2,2-trifluoroethoxy)phenyl]imidazo[1,5-d][1,2,4]triazin-4-yl}amino)-1-methylcyclobutan-1-ol] |
| 10 to 100 nM | Cc1cc2c(-c3ccc(C(F)(F)F)cc3OC(F)(F)F)nnc(N[C@@H]3CCCC[C@H]3O)n2n1 [Compound 382, (1R,2R)-2-({2-methyl-4-[2-(trifluoromethoxy)-4-(trifluoromethyl)phenyl]pyrazolo[1,5-d][1,2,4]triazin-7-yl}amino)cyclohexan-1-ol] |
| < 1 nM | OCCN1CCC[C@@H](Nc2nnc(-c3ccc(C(F)(F)F)cc3CC(F)(F)F)c3cncn23)C1 [Compound 301] |
| 1 to 10 nM | COc1ccc(-c2nnc(N[C@H]3C[C@@](C)(O)C3)n3cncc23)c(CC(F)(F)F)c1 [Compound 236, (1s,3s)-3-({1-[4-methoxy-2-(2,2,2-trifluoroethyl)phenyl]imidazo[1,5-d][1,2,4]triazin-4-yl}amino)-1-methylcyclobutan-1-ol] |
| 10 to 100 nM | O[C@@H]1COCC[C@H]1Nc1nnc(-c2ccc(OC(F)F)cc2OC(F)(F)F)c2cncn12 [Compound 331, (3S,4R)-4-({1-[4-(difluoromethoxy)-2-(trifluoromethoxy)phenyl]imidazo[1,5-d][1,2,4]triazin-4-yl}amino)oxan-3-ol] |
| 10 to 100 nM | O[C@H]1CCOC[C@@H]1Nc1nnc(-c2ccc(C(F)(F)F)cc2C(F)(F)F)c2cncn12 [Compound 274, (3S,4S)-3-({1-[2,4-bis(trifluoromethyl)phenyl]imidazo[1,5-d][1,2,4]triazin-4-yl}amino)oxan-4-ol] |
| < 1 nM | OC[C@H]1C[C@@H](Nc2nnc(-c3ccc(C(F)(F)F)cc3CC(F)(F)F)c3cncn23)C1 [Compound 264] |
| < 1 nM | C[C@]1(O)C[C@@H](Nc2nnc(-c3ccc(C(F)(F)F)cc3CC(F)(F)F)c3cncn23)C1 [Compound 263, (1s,3s)-1-methyl-3-({1-[2-(2,2,2-trifluoroethyl)-4-(trifluoromethyl)phenyl]imidazo[1,5-d][1,2,4]triazin-4-yl}amino)cyclobutan-1-ol] |
| 1 to 10 nM | CCN1CCC[C@@H](Nc2nnc(-c3ccc(SC)cc3OC(F)(F)F)c3cc(C)nn23)C1 [Compound 366, N-[(3R)-1-ethylpiperidin-3-yl]-2-methyl-4-[4-(methylsulfanyl)-2-(trifluoromethoxy)phenyl]pyrazolo[1,5-d][1,2,4]triazin-7-amine] |
| 1 to 10 nM | C[C@]1(O)C[C@@H](Nc2nnc(-c3ccc(Br)cc3C(F)(F)F)c3cncn23)C1 [Compound 204, (1s,3s)-3-({1-[4-bromo-2-(trifluoromethyl)phenyl]imidazo[1,5-d][1,2,4]triazin-4-yl}amino)-1-methylcyclobutan-1-ol] |
